From PubChem BioAssay AID330 (DTP/NCI, 2004) come the findings set out here.

For the test, the system named is P388 leukemia ip, CD2F1 mice, survival T/C. Nature of the test: NCI In Vivo Anticancer Drug Screen. Data for tumor model P388 Leukemia (intraperitoneal) in CD2F1 (CDF1) mice. To be noted: endpoint: median survival time, higher = longer survival. Summed up:
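Mice carrying the transplanted tumor received test compound or vehicle. Survival was recorded in each group, and the value is the treated-group measurement divided by that of the vehicle-treated control group.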

Where [1] appears, read: dose: 25.0 mg/kg/injection, schedule: Q01DX005 (ip), vehicle: saline with Tween-80.
The mark [2] stands for this setting: dose: 50.0 mg/kg/injection, schedule: Q01DX005 (ip), vehicle: saline with Tween-80.
Where [3] appears, read: dose: 100.0 mg/kg/injection, schedule: Q01DX005 (ip), vehicle: saline with Tween-80.
Where [4] appears, read: dose: 200.0 mg/kg/injection, schedule: Q01DX005 (ip), vehicle: saline with Tween-80.
[5] abbreviates: dose: 50.0 mg/kg/injection, schedule: Q01DX005 (ip), vehicle: Klucel (hydroxypropylcellulose) (HPC).
The mark [6] stands for this setting: dose: 100.0 mg/kg/injection, schedule: Q01DX005 (ip), vehicle: Klucel (hydroxypropylcellulose) (HPC).
[7] abbreviates: dose: 200.0 mg/kg/injection, schedule: Q01DX005 (ip), vehicle: Klucel (hydroxypropylcellulose) (HPC).
Setting [8] is: dose: 25.0 mg/kg/injection, schedule: Q01DX009 (ip), vehicle: saline with Tween-80.
[9] abbreviates: dose: 50.0 mg/kg/injection, schedule: Q01DX009 (ip), vehicle: saline with Tween-80.
[10] abbreviates: dose: 50.0 mg/kg/injection, schedule: Q01DX009 (ip), vehicle: Klucel (hydroxypropylcellulose) (HPC).
[11] abbreviates: dose: 100.0 mg/kg/injection, schedule: Q01DX009 (ip), vehicle: Klucel (hydroxypropylcellulose) (HPC).
Setting [12] is: dose: 200.0 mg/kg/injection, schedule: Q01DX009 (ip), vehicle: Klucel (hydroxypropylcellulose) (HPC).

Structures are written as SMILES. Several values for one entry are separate records, joined by “and”; a condition that tells them apart may be missing. Equal entries are not always repeated. Inconclusive results and toxic doses are left out.

As for `COc1cc([N+](=O)[O-])ccc1C(=O)Nc1c2ccccc2nc2ccccc12`, the T/C was 95 % of control under setting [1], 107 % of control under setting [2], 92 % of control under setting [3] and 92 % of control under setting [4].
Consider `CCCCCCCCCCCC(=O)OOC(C)(C)C`, for which the T/C runs as follows: (dose: 60.0 mg/kg/injection, schedule: Q01DX005 (ip), vehicle: saline with Tween-80) 100 % of control; (dose: 120.0 mg/kg/injection, schedule: Q01DX005 (ip), vehicle: saline with Tween-80) 102 % of control; (dose: 240.0 mg/kg/injection, schedule: Q01DX005 (ip), vehicle: saline with Tween-80) 97 % of control.
As to `CN(C)/C=C/c1ccc([N+](=O)[O-])o1`, the T/C is, setting by setting: (dose: 50.0 mg/kg/injection, schedule: Q01DX009 (ip), vehicle: suspension in saline) 100 % of control; (dose: 100.0 mg/kg/injection, schedule: Q01DX009 (ip), vehicle: suspension in saline) 104 % of control; (dose: 200.0 mg/kg/injection, schedule: Q01DX009 (ip), vehicle: suspension in saline) 118 % of control.
In the case of `CSC1=NN(C(C)=O)C(c2ccncc2)S1` (centres undefined), the T/C was 96 % of control under setting [5], 97 % of control under setting [6] and 92 % of control under setting [7].
Regarding `[Cl][Sn][Cl].c1cnc2c(c1)ccc1cccnc12`, the T/C was 97 % of control (dose: 100.0 mg/kg/injection, schedule: Q04DX003 (ip), vehicle: saline with Tween-80) and 112 % of control (dose: 200.0 mg/kg/injection, schedule: Q04DX003 (ip), vehicle: saline with Tween-80).
As for `O=S(=O)(O)O.[Cu+2].[NH2-].[NH2-].[NH2-].[NH2-]`, the T/C was 99 % of control (dose: 5.0 mg/kg/injection, schedule: Q04DX002 (ip), vehicle: saline); 86 % of control (dose: 6.25 mg/kg/injection, schedule: Q01DX009 (ip), vehicle: saline); 93 % of control (dose: 12.5 mg/kg/injection, schedule: Q01DX009 (ip), vehicle: saline).
For `OCCN=Cc1ccccc1`, the T/C (dose: 25.0 mg/kg/injection, schedule: Q01DX009 (ip), vehicle: saline sonified) is 90 % of control; the T/C (dose: 50.0 mg/kg/injection, schedule: Q01DX009 (ip), vehicle: saline sonified) is 104 % of control; the T/C (dose: 100.0 mg/kg/injection, schedule: Q01DX009 (ip), vehicle: saline sonified) is 104 % of control.
Take `Cc1ccc(O)c(C(c2cc(C)ccc2O)c2cc(C)ccc2O)c1`: the T/C under setting [8] is 107 % of control; the T/C under setting [9] was 105 % of control and 113 % of control; the T/C (dose: 100.0 mg/kg/injection, schedule: Q01DX009 (ip), vehicle: saline with Tween-80) was 101 % of control.
For the molecule `O=C(CN1CC1)NCCCCCCCCCNC(=O)CN1CC1`, the T/C by setting is: (dose: 2.5 mg/kg/injection, schedule: Q01DX009 (ip), vehicle: saline with Tween-80) 90 % of control; (dose: 5.0 mg/kg/injection, schedule: Q01DX009 (ip), vehicle: saline with Tween-80) 150 % of control; (dose: 10.0 mg/kg/injection, schedule: Q01DX009 (ip), vehicle: saline with Tween-80) 186 % of control.
Consider `O=c1nc2n(CC(O)C(O)C(O)C(O)CO)c3cc(Cl)c(Cl)cc3nc-2c(=O)[nH]1` (centres undefined), for which the T/C by setting is: under setting [2], 105 % of control; under setting [3], 111 % of control.
`O=C1c2ccccc2C(=O)N1OCc1ccccc1[N+](=O)[O-]`: the T/C by setting is: under setting [5], 102 % of control; under setting [6], 101 % of control; under setting [7], 90 % of control.
As for `OCCNCCNc1ccnc2c1ccc1ccccc12`, under setting [2], the T/C was 105 % of control.
Consider `CCOC(=O)N(CCCl)C(=O)C(C)C`, for which the T/C runs as follows: (dose: 100.0 mg/kg/injection, schedule: Q01DX001 (ip), vehicle: saline with Tween-80) 104 % of control; (dose: 200.0 mg/kg/injection, schedule: Q01DX001 (ip), vehicle: saline with Tween-80) 100 % of control; (dose: 400.0 mg/kg/injection, schedule: Q01DX001 (ip), vehicle: saline with Tween-80) 104 % of control.
Turning to `Clc1nc(-c2ccccc2)ns1`, the T/C is 86 % of control (dose: 25.0 mg/kg/injection, schedule: Q01DX009 (ip), vehicle: Klucel (hydroxypropylcellulose) (HPC)); 106 % of control under setting [10]; 102 % of control under setting [11]; 104 % of control under setting [12].
For the molecule `COc1cc2c(cc1C(C)c1ccc(Br)cc1)OCO2` (centres undefined), the T/C by setting is: under setting [2], 96 % of control; under setting [3], 103 % of control; under setting [4], 100 % of control.
As to `CCOc1ccc(-n2c(O)c(N=Nc3ccccc3OC)sc2=S)cc1`, the T/C is 97 % of control under setting [5], 93 % of control under setting [6] and 95 % of control under setting [7].
In the case of `CS/C(=C1/C(=O)N(c2ccccc2)N=C1c1ccccc1)N1CC1`, the T/C is 98 % of control (dose: 100.0 mg/kg/injection, schedule: Q04DX003 (ip), vehicle: Klucel (hydroxypropylcellulose) (HPC)); 94 % of control (dose: 200.0 mg/kg/injection, schedule: Q04DX003 (ip), vehicle: Klucel (hydroxypropylcellulose) (HPC)); 95 % of control (dose: 400.0 mg/kg/injection, schedule: Q04DX003 (ip), vehicle: Klucel (hydroxypropylcellulose) (HPC)).
In the case of `OCCN(CCO)Cc1nc2ccccc2[nH]1`, the T/C is 104 % of control (dose: 50.0 mg/kg/injection, schedule: Q01DX005 (ip), vehicle: saline); 99 % of control (dose: 100.0 mg/kg/injection, schedule: Q01DX005 (ip), vehicle: saline); 101 % of control (dose: 200.0 mg/kg/injection, schedule: Q01DX005 (ip), vehicle: saline).
`O=C(Oc1ccccc1[N+](=O)[O-])C1CCCN1C(=O)OCc1ccccc1` (centres undefined): the T/C is 104 % of control under setting [1], 109 % of control under setting [2], 102 % of control under setting [3] and 99 % of control under setting [4].
For `Cc1cc(O)c(Br)cc1O`, the T/C was 100 % of control under setting [5], 97 % of control under setting [6] and 97 % of control under setting [7].
As for `CCCCN1C(=O)c2ccc(N)cc2C1=O`, the T/C is 100 % of control under setting [10], 97 % of control under setting [11] and 110 % of control under setting [12].
Turning to `NC(=S)c1ccc(C2Nc3ccc(Cl)cc3N2)cc1` (centres undefined), the T/C is 106 % of control (dose: 12.5 mg/kg/injection, schedule: Q04DX002 (ip), vehicle: saline with Tween-80); 94 % of control (dose: 25.0 mg/kg/injection, schedule: Q04DX002 (ip), vehicle: saline with Tween-80); 90 % of control (dose: 50.0 mg/kg/injection, schedule: Q04DX002 (ip), vehicle: saline with Tween-80).
`CC(NC1=NCCO1)c1cccc2ccccc12` (centres undefined): the T/C is 100 % of control (dose: 12.5 mg/kg/injection, schedule: Q04DX003 (ip), vehicle: saline with Tween-80); 95 % of control (dose: 25.0 mg/kg/injection, schedule: Q04DX003 (ip), vehicle: saline with Tween-80); 100 % of control (dose: 50.0 mg/kg/injection, schedule: Q04DX003 (ip), vehicle: saline with Tween-80).
`COc1cccc(/C=N/Nc2cc(C)nc3cc4c(cc23)OCO4)c1`: the T/C was 104 % of control (dose: 6.25 mg/kg/injection, schedule: Q01DX005 (ip), vehicle: Klucel (hydroxypropylcellulose) (HPC)); 97 % of control (dose: 12.5 mg/kg/injection, schedule: Q01DX005 (ip), vehicle: Klucel (hydroxypropylcellulose) (HPC)); 100 % of control and 87 % of control (dose: 25.0 mg/kg/injection, schedule: Q01DX005 (ip), vehicle: Klucel (hydroxypropylcellulose) (HPC)); 100 % of control and 102 % of control and 96 % of control under setting [5]; 95 % of control under setting [6].
On to `Clc1nc(Cl)nc(-c2cn(-c3ccccc3)c3ccccc23)n1`, for which the T/C was 100 % of control (dose: 12.5 mg/kg/injection, schedule: Q01DX009 (ip), vehicle: saline with Tween-80); 90 % of control under setting [8]; 100 % of control under setting [9].
`CCCC[n+]1c(/C=C\c2c(OC)cc(OC)cc2OC)ccc2ccccc21`: the T/C is 115 % of control (dose: 0.19 mg/kg/injection, schedule: Q01DX009 (ip), vehicle: Klucel (hydroxypropylcellulose) (HPC)); 115 % of control and 122 % of control (dose: 0.39 mg/kg/injection, schedule: Q01DX009 (ip), vehicle: Klucel (hydroxypropylcellulose) (HPC)); 105 % of control (dose: 0.78 mg/kg/injection, schedule: Q01DX009 (ip), vehicle: Klucel (hydroxypropylcellulose) (HPC)).
